Assay results reported in US20230192608A1, “WATER-SOLUBLE, MODIFIED AMINO ACID DERIVATIVES FOR TREATMENT OF NEUROLOGICAL DISEASES, AND SELECTED PSYCHIATRIC DISORDERS” (Uniwersytet Jagiellonski, priority 2020, published 2023).
Marks after values point to notes of the source that are not given here.

Tests used:
[1] = tested on: male white Swiss mice (CD-1); test: Maximal electroshock test (MES), screening; format: in vivo; settings: 100 mg/kg intraperitoneal, time point 0.5 h
Procedure: (§1) The studies were carried out on male white Swiss mice (CD-1) weighing 18-26 g. All procedures were performed in accordance with the applicable Polish and international guidelines for the ethics of animal research, after obtaining of the appropriate institutional consent. […] Screening tests were performed in groups consisted of 4 mice. All tests were performed according to the procedures described in the specialist literature: maximal electroshock test (MES) (Kamiński et al. Bioorg. Med. Chem. 2015, 23, 2548-2561; Castel-Branco et al. Pharmacol. 2009, 31, 101-106, Riban et al. Neurosci. 2002, 112, 101-111); psychomotor seizure test (6 Hz, 32 mA) (Barton et al. Epilepsy Res. 2001, 47, 217-227; Wojda et al. Epilepsy Res. 2009, 86, 163-174); subcutaneous pentylenetetrazole test (scPTZ) (Ferreri et al. Pharmacol. Biochem. Behav. 2004, 77, 85-94).

[2] = tested on: male white Swiss mice (CD-1); test: Psychomotor seizure test (6 Hz, 32 mA), screening; format: in vivo; settings: 100 mg/kg intraperitoneal, time point 0.5 h
Procedure: as §1

[3] = tested on: male white Swiss mice (CD-1); test: Subcutaneous pentylenetetrazole test (scPTZ), screening; format: in vivo; settings: 100 mg/kg intraperitoneal, time point 0.5 h
Procedure: as §1

[4] = Water solubility test at 25° C. per 1 gram of compound (European Pharmacopoeia 10.0 / Polish Pharmacopoeia XII); settings: for The volume of water required for dissolution of 1 g of the substance at 25° C.: 1 g of compound, maximum volume of water used 100 mL; for Matching term (solubility in water, pharmacopoeial terminology): European Pharmacopoeia 10.0 / Polish Pharmacopoeia XII
[5] = tested on: male white Swiss mice (CD-1); test: Anticonvulsant screening summarised over MES, scPTZ and 6 Hz (32 mA) models; format: in vivo; settings: screening data of Table 3, 100 mg/kg intraperitoneal
Procedure: as §1
These models are recognized as the most important and widely used pharmacological tests allowing the identification of candidates for new antiepileptic drugs. […] This is crucial in situations requiring immediate intervention to stop seizures, including, e.g status epilpepticus, which is considered as a life-threatening situation.

[6] = tested on: male white Swiss mice (CD-1); settings: model AED, comparison; cited from earlier work
[7] = tested on: male white Swiss mice (CD-1); settings: model AED, comparison; cited from earlier work; remark: listed apart in the source

Row | Compound | MES: number of mice protected/number of mice tested [1] | 6 Hz (32 mA): number of mice protected/number of mice tested [2] | scPTZ: number of mice protected/number of mice tested [3] | The volume of water required for dissolution of 1 g of the substance at 25° C. [4] | Matching term (solubility in water, pharmacopoeial terminology) [4] | Anticonvulsant activity (in words) [5] | Activity in MES test (in words) [6] | Activity in scPTZ test (in words) [7]
1 | C[C@@H](C(=O)NCc1ccccc1)N1C(=O)CCC1=O [(2S)-1, reference compound] | 1/4 | 4/4 | 2/4 | >100^c mL | Slightly soluble | – | – | –
2 | C[C@H](C(=O)NCc1ccccc1F)N1C(=O)CCC1=O [(2R)-2, reference compound] | 4/4 | 4/4 | 3/4 | >100^c mL | Slightly soluble | – | – | –
3 | C[C@@H](C(=O)NCc1ccccc1F)N1C(=O)CCC1=O [(2S)-2, reference compound] | 2/4 | 2/4 | 2/4 | >100^c mL | Slightly soluble | – | – | –
4 | C[C@@H](C(=O)NCc1ccccc1)N1CCCC1=O [Compound (2S)-3, (2S)-N-benzyl-2-(2-oxopyrrolidin-1-yl)propanamide] | 2/4 | 2/4 | 2/4 | 25 mL | Soluble | – | – | –
5 | C[C@H](C(=O)NCc1ccccc1)N1C(=O)CCC1=O [(2R)-1, reference compound] | 3/4 | 4/4 | 3/4 | >100^c mL | Slightly soluble | – | – | –
6 | C[C@H](C(=O)NCc1ccccc1F)N1C(=O)CC(N(C)C)C1=O.Cl (stereo partly drawn) [Compound (2R)-6 × HCl, (2R)-2-(3-(dimethylamino)-2,5-dioxopyrrolidin-1-yl)-N-(2-fluorobenzyl)propanamide hydrochloride] | – | – | – | – | – | potent anticonvulsant activity | – | –
7 | CC[C@@H](C(N)=O)N1CCCC1=O [levetiracetam] | – | – | – | – | – | – | inactive | inactive
8 | C[C@@H](C(=O)NCc1ccccc1F)N1CCCC1=O [Compound (2S)-4, (2S)-N-(2-fluorobenzyl)-2-(2-oxopyrrolidin-1-yl)propanamide] | 2/4 | 2/4 | 2/4 | 30 mL | Soluble | – | – | –
9 | CC(C(=O)NCc1ccccc1F)N1CCCC1=O [(2R,S)-4, (2R,S)-N-(2-fluorobenzyl)-2-(2-oxopyrrolidin-1-yl)propanamide] | 3/4 | 3/4 | 2/4 | 30 mL | Soluble | – | – | –
10 | C[C@H](C(=O)NCc1ccccc1)N1C(=O)CC(N(C)C)C1=O.Cl (stereo partly drawn) [Compound (2R)-5 × HCl, (2R)-N-benzyl-2-(3-(dimethylamino)-2,5-dioxopyrrolidin-1-yl)propanamide hydrochloride] | – | – | – | – | – | potent anticonvulsant activity | – | –
11 | CC(C(=O)NCc1ccccc1)N1C(=O)CCC1=O (racemic) [(2R,S)-1, reference compound] | 3/4 | 3/4 | 2/4 | >100^c mL | Slightly soluble | – | – | –
12 | CC(C(=O)NCc1ccccc1)N1CCCC1=O [Compound (2R,S)-3, (2R,S)-N-benzyl-2-(2-oxopyrrolidin-1-yl)propanamide] | 3/4 | 4/4 | 2/4 | 25 mL | Soluble | – | – | –
13 | CC(C(=O)NCc1ccccc1F)N1C(=O)CCC1=O (racemic) [(2R,S)-2, reference compound] | 3/4 | 3/4 | 3/4 | >100^c mL | Slightly soluble | – | – | –
14 | C[C@H](C(=O)NCc1ccccc1)N1CCCC1=O [Compound (2R)-3, (2R)-N-benzyl-2-(2-oxopyrrolidin-1-yl)propanamide] | 4/4 | 4/4 | 3/4 | 25 mL | Soluble | potent anticonvulsant activity | – | –
15 | CC(C(=O)NCc1ccccc1)N1C(=O)CC(N(C)C)C1=O (stereo not shown) [Compound 5, N-benzyl-2-(3-(dimethylamino)-2,5-dioxopyrrolidin-1-yl)propanamide] | – | – | – | – | substances easily soluble in water | – | – | –
16 | C[C@H](C(=O)NCc1ccccc1F)N1CCCC1=O [Compound (2R)-4, (2R)-N-(2-fluorobenzyl)-2-(2-oxopyrrolidin-1-yl)propanamide] | 4/4 | 4/4 | 3/4 | 30 mL | Soluble | potent anticonvulsant activity | – | –
17 | CC(C(=O)NCc1ccccc1)N1CCCC1=O (stereo not shown) [Compound 3, N-benzyl-2-(2-oxopyrrolidin-1-yl)propanamide] | – | – | – | – | water-soluble substances | – | – | –
18 | CC(C(=O)NCc1ccccc1F)N1C(=O)CC(N(C)C)C1=O (stereo not shown) [Compound 6] | – | – | – | – | substances easily soluble in water | – | – | –
19 | CC(C(=O)NCc1ccccc1F)N1CCCC1=O (stereo not shown) [Compound 4, N-(2-fluorobenzyl)-2-(2-oxopyrrolidin-1-yl)propanamide] | – | – | – | – | water-soluble substances | – | – | –
